Where two headings read alike, the source gives them in different places.
Biological target: Mcl-1 protein (UniProtKB primary accession number: Q07820) (Homo sapiens, UniProt Q07820)
Assay: Inhibition of Mcl-1 by fluorescence polarisation, Method 1
Assay type: binding
Conditions: for IC50: read-out: IC50 (M) Mcl-1 FP
In short: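 An 11-point DMSO dilution of compound is mixed with buffer (10 mM HEPES, 150 mM NaCl, 0.05% Tween 20, pH 7.4) carrying 1 nM fluorescein-labelled ligand and 5 nM Mcl-1, final concentrations. Displacement is monitored by fluorescence polarisation.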

[1] = fluorescence polarisation test, Method 2 values are underlined in the patent (underlining not visible here)
[2] = fluorescence polarisation, Method 1, or Method 2

Mcl-1 protein, sequence (Q07820 whole entry): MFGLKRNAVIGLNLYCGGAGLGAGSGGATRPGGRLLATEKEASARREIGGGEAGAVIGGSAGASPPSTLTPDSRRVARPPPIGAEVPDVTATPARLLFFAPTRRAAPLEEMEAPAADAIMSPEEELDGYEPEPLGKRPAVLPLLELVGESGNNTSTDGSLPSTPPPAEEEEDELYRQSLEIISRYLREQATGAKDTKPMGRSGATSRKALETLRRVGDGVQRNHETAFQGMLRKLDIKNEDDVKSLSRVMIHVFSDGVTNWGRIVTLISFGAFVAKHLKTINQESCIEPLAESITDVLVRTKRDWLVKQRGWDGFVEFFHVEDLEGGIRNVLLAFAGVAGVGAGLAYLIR

Compound | IC50 [1] [M] | IC50 [2] [M] | also measured
Cc1c(-c2c(-c3ccc(F)cc3)sc3ncnc(OC(Cc4ccccc4OCc4ccnc(-c5ccccc5F)n4)C(=O)OCC(=O)N(C)C)c23)ccc(OCCN2CCN(C)CC2)c1Cl [Example 816, 2-(dimethylamino)-2-oxoethyl (2R)-2-{[(5Sa)-5-{3-chloro-2-methyl-4-[2-(4-methylpiperazin-1-yl)ethoxy]phenyl}-6-(4-fluorophenyl)thieno[2,3-d]pyrimidin-4-yl]oxy}-3-(2-{[2-(2-fluorophenyl)pyrimidin-4-yl]methoxy}phenyl)propanoate] | – | – | IC50 (fluorescence polarisation test, Method 1, or Method 2 where the value is underlined (underlining not visible)): 1.72e-07 M
Cc1c(-c2c(-c3ccc(F)o3)sc3ncnc(OC(Cc4ccccc4OCC(F)(F)F)C(=O)O)c23)ccc(OCCN2CCN(C)CC2)c1Cl [Example 158, (2R)-2-{[(5Sa)-5-{3-chloro-2-methyl-4-[2-(4-methylpiperazin-1-yl)ethoxy]phenyl}-6-(5-fluorofuran-2-yl)thieno[2,3-d]pyrimidin-4-yl]oxy}-3-[2-(2,2,2-trifluoroethoxy)phenyl]propanoic acid] | 4.6e-09 | – | –
CCn1nccc1COc1ccccc1CC(Oc1ncnc2sc(-c3ccc(F)o3)c(-c3ccc(OCCN4CCN(C)CC4)c(Cl)c3C)c12)C(=O)O [Example 184, (2R)-2-{[(5Sa)-5-{3-chloro-2-methyl-4-[2-(4-methylpiperazin-1-yl)ethoxy]phenyl}-6-(5-fluorofuran-2-yl)thieno[2,3-d]pyrimidin-4-yl]oxy}-3-{2-[(1-ethyl-1H-pyrazol-5-yl)methoxy]phenyl}propanoic acid] | 6e-09 | – | –
Cc1nc(-c2sc3ncnc(OC(Cc4ccccc4)C(=O)O)c3c2-c2ccc(OCCN3CCN(C)CC3)c(Cl)c2C)cs1 [Example 515, (2R)-2-{[(5Sa)-5-{3-chloro-2-methyl-4-[2-(4-methylpiperazin-1-yl)ethoxy]phenyl}-6-(2-methyl-1,3-thiazol-4-yl)thieno[2,3-d]pyrimidin-4-yl]oxy}-3-phenylpropanoic acid] | – | 8.4e-08 | –
COc1ccccc1C[C@@H](Oc1ncnc2sc(-c3ccc(F)cc3)c(-c3ccc(OC)c(Cl)c3C)c12)C(=O)OCOC(=O)C(C)(C)C [Example 846, {[(2R)-2-{[(5Sa)-5-(3-chloro-4-methoxy-2-methylphenyl)-6-(4-fluorophenyl)thieno[2,3-d]pyrimidin-4-yl]oxy}-3-(2-methoxyphenyl)propanoyl]oxy}methyl 2,2-dimethylpropanoate] | – | – | percentage fluorescence polarisation inhibition (Mcl-1 FP), partial inhibitors (test compound at 10 uM, Method 1, or Method 2 where the value is underlined (underlining not visible)): 25.1% @ 10 uM
Cc1ccsc1-c1sc2ncnc(OC(Cc3ccccc3)C(=O)O)c2c1-c1ccc(OCCN2CCN(C)CC2)c(Cl)c1C [Example 517, (2R)-2-{[(5Sa)-5-{3-chloro-2-methyl-4-[2-(4-methylpiperazin-1-yl)ethoxy]phenyl}-6-(3-methylthiophen-2-yl)thieno[2,3-d]pyrimidin-4-yl]oxy}-3-phenylpropanoic acid] | – | 5.1e-07 | –
Cc1c(-c2c(-c3ccc(F)cc3)sc3ncnc(OC(Cc4ccccc4OCc4ccnc(N5CCOCC5)n4)C(=O)O)c23)ccc(OCCN2CCN(C)CC2)c1Cl [Example 52, (2R)-2-{[(5Sa)-5-{3-chloro-2-methyl-4-[2-(4-methylpiperazin-1-yl)ethoxy]phenyl}-6-(4-fluorophenyl)thieno[2,3-d]pyrimidin-4-yl]oxy}-3-(2-{[2-(morpholin-4-yl)pyrimidin-4-yl]methoxy}phenyl)propanoic acid] | 5.6e-09 | – | –
Cc1c(-c2c(-c3ccc(F)cc3)sc3ncnc(OC(Cc4ccccc4OCc4ccnc(-c5ccncc5)n4)C(=O)O)c23)ccc(OCCN2CCN(C)CC2)c1Cl [Example 34, (2R)-2-{[(5Sa)-5-{3-chloro-2-methyl-4-[2-(4-methylpiperazin-1-yl)ethoxy]phenyl}-6-(4-fluorophenyl)thieno[2,3-d]pyrimidin-4-yl]oxy}-3-(2-{[2-(pyridin-4-yl)pyrimidin-4-yl]methoxy}phenyl)propanoic acid] | 3.3e-09 | – | –
Cc1c(-c2c(-c3ccc(F)cc3)sc3ncnc(OC(Cc4ccccc4OCc4ccnc(-c5ccco5)n4)C(=O)O)c23)ccc(OCCN2CCN(C)CC2)c1Cl [Example 117, (2R)-2-{[(5Sa)-5-{3-chloro-2-methyl-4-[2-(4-methylpiperazin-1-yl)ethoxy]phenyl}-6-(4-fluorophenyl)thieno[2,3-d]pyrimidin-4-yl]oxy}-3-(2-{[2-(furan-2-yl)pyrimidin-4-yl]methoxy}phenyl)propanoic acid] | 6.1e-09 | – | –
CCc1sc2ncnc(OC(Cc3ccccc3)C(=O)O)c2c1-c1ccc(OCCN2CCN(C)CC2)cc1C [Example 416, (2R)-2-[(6-ethyl-(5Ra)-5-{2-methyl-4-[2-(4-methylpiperazin-1-yl)ethoxy]phenyl}thieno[2,3-d]pyrimidin-4-yl)oxy]-3-phenylpropanoic acid] | – | 7e-07 | –
COc1ccccc1-c1nccc(COc2ccccc2CC(Oc2ncnc3sc(-c4ccc(F)cc4)c(-c4ccc(OCCN(C)C)c(Cl)c4C)c23)C(=O)O)n1 [Example 135, (2R)-2-{[(5Sa)-5-{3-chloro-4-[2-(dimethylamino)ethoxy]-2-methylphenyl}-6-(4-fluorophenyl)thieno[2,3-d]pyrimidin-4-yl]oxy}-3-(2-{[2-(2-methoxyphenyl)pyrimidin-4-yl]methoxy}phenyl)propanoic acid] | 8.6e-09 | – | –
CCOC(=O)[C@@H](Cc1ccccc1OCC(F)(F)F)Oc1ncnc2sc(-c3ccc(F)cc3)c(-c3ccc(OCCN4CCN(C)CC4)c(Cl)c3C)c12 [Example 635, ethyl (2R)-2-{[(5Sa)-5-{3-chloro-2-methyl-4-[2-(4-methylpiperazin-1-yl)ethoxy]phenyl}-6-(4-fluorophenyl)thieno[2,3-d]pyrimidin-4-yl]oxy}-3-[2-(2,2,2-trifluoroethoxy)phenyl]propanoate] | – | – | percentage fluorescence polarisation inhibition, Mcl-1 FP (partial inhibitors, @ 10 uM test compound): 50.75% @ 10 uM
COc1ccccc1CC(Oc1ncnc2sc(-c3cccc(OC(F)(F)F)c3)c(-c3ccc(OCCN4CCN(C)CC4)c(Cl)c3C)c12)C(=O)O [Example 555, (2R)-2-[((5Sa)-5-{3-chloro-2-methyl-4-[2-(4-methylpiperazin-1-yl)ethoxy]phenyl}-6-[3-(trifluoromethoxy)phenyl]thieno[2,3-d]pyrimidin-4-yl)oxy]-3-(2-methoxyphenyl)propanoic acid] | – | 3.9e-07 | –
COc1ccccc1CC(Oc1ncnc2sc(-c3ccco3)c(-c3ccc(OCCN4CC[N+](C)([O-])CC4)c(Cl)c3C)c12)C(=O)O [Example 296, (2R)-2-{[(5Sa)-5-{3-chloro-2-methyl-4-[2-(4-methyl-4-oxidopiperazin-1-yl)ethoxy]phenyl}-6-(furan-2-yl)thieno[2,3-d]pyrimidin-4-yl]oxy}-3-(2-methoxyphenyl)propanoic acid] | 9.3e-09 | – | –
COCCc1nccc(COc2ccccc2CC(Oc2ncnc3sc(-c4ccc(F)cc4)c(-c4ccc(OCCN5CCN(C)CC5)c(Cl)c4C)c23)C(=O)O)n1 [Example 44, (2R)-2-{[(5Sa)-5-{3-chloro-2-methyl-4-[2-(4-methylpiperazin-1-yl)ethoxy]phenyl}-6-(4-fluorophenyl)thieno[2,3-d]pyrimidin-4-yl]oxy}-3-(2-{[2-(2-methoxyethyl)pyrimidin-4-yl]methoxy}phenyl)propanoic acid] | 4.8e-09 | – | –

The next lines start with results.

IC50 [1] [M] | IC50 [2] [M] | Compound | also measured
1.6e-06 | – | Cc1c(-c2c(-c3ccc(F)o3)sc3ncnc(OC(Cc4ccccc4OCc4ccccn4)C(=O)O)c23)ccc(OCCN2CCN(C)CC2)c1Cl (single isomer, unassigned) [Example 165] | –
– | 1.43e-08 | COc1ccccc1-n1ccc(COc2ccccc2CC(Oc2ncnc3sc(-c4ccc(F)cc4)c(-c4ccc(OCCN5CCN(C)CC5)c(Cl)c4C)c23)C(=O)O)n1 [Example 737, (2R)-2-{[(5Sa)-5-{3-chloro-2-methyl-4-[2-(4-methylpiperazin-1-yl)ethoxy]phenyl}-6-(4-fluorophenyl)thieno[2,3-d]pyrimidin-4-yl]oxy}-3-(2-{[1-(2-methoxyphenyl)-1H-pyrazol-3-yl]methoxy}phenyl)propanoic acid] | –
– | 2.26e-06 | CCOC(=O)C(Cc1ccccc1OCc1ccnn1C(C)(C)C)Oc1ncnc2sc(-c3ccc(F)cc3)c(-c3ccc(OCCN4CCN(C)CC4)c(Cl)c3C)c12 [Example 791, ethyl (2R)-3-{2-[(1-tert-butyl-1H-pyrazol-5-yl)methoxy]phenyl}-2-{[(5Sa)-5-{3-chloro-2-methyl-4-[2-(4-methylpiperazin-1-yl)ethoxy]phenyl}-6-(4-fluorophenyl)thieno[2,3-d]pyrimidin-4-yl]oxy}propanoate] | –
7.7e-09 | – | COc1ccccc1CC(Oc1ncnc2sc(-c3ccc(Cl)o3)c(-c3ccc(OCCN4CCN(C)CC4)c(Cl)c3C)c12)C(=O)O [Example 363, (2R)-2-{[6-(5-chlorofuran-2-yl)-(5Sa)-5-{3-chloro-2-methyl-4-[2-(4-methylpiperazin-1-yl)ethoxy]phenyl}thieno[2,3-d]pyrimidin-4-yl]oxy}-3-(2-methoxyphenyl)propanoic acid] | –
– | 5e-09 | CC/C=C\c1sc2ncnc(O[C@H](Cc3ccccc3)C(=O)O)c2c1-c1ccc(OCCN2CCN(C)CC2)c(Cl)c1C [Example 493, (2R)-2-[(6-[(1Z)-but-1-en-1-yl]-(5Sa)-5-{3-chloro-2-methyl-4-[2-(4-methylpiperazin-1-yl)ethoxy]phenyl}thieno[2,3-d]pyrimidin-4-yl)oxy]-3-phenylpropanoic acid] | –
1.1e-08 | – | CC(=O)NCc1ccccc1CC(Oc1ncnc2sc(-c3ccco3)c(-c3ccc(OCCN4CCN(C)CC4)c(Cl)c3C)c12)C(=O)O [Example 356, (2R)-3-{2-[(acetylamino)methyl]phenyl}-2-{[(5Sa)-5-{3-chloro-2-methyl-4-[2-(4-methylpiperazin-1-yl)ethoxy]phenyl}-6-(furan-2-yl)thieno[2,3-d]pyrimidin-4-yl]oxy}propanoic acid] | –
– | 2.8e-08 | (2R)-2-{[(5Sa)-5-(3-chloro-2-methylphenyl)-6-ethylthieno[2,3-d]pyrimidin-4-yl]oxy}-3-phenylpropanoic acid and (2S)-2-{[(5Ra)-5-(3-chloro-2-methylphenyl)-6-ethylthieno[2,3-d]pyrimidin-4-yl]oxy}-3-phenylpropanoic acid [Example 449] | –

— patent publication US9670227B2, “Thienopyrimidine derivatives, a process for their preparation and pharmaceutical compositions containing them” (LES LABORATOIRES SERVIER, priority 2013, dated 2017)
